Measurements: patent publication US11278514B2, “Composition compromising dunnione as effective ingredient for prevention or alleviation of hair loss” (NADIANBIO LTD., priority 2018, dated 2022)
Entries after “also recorded” stand apart in the source; their conditions may differ. Where two headings read alike, the source gives them in different places.

Legend:
[1] = tested on: C57BL/6 mice having alopecia caused by cyclophosphamide; assay: Visual observation of skin in animal model having alopecia caused by cyclophosphamide; type: in vivo
From the text: In 9-week-old C57BL/6 mice, the hair on the dorsal skin area was first removed with an animal hair clipper, and then a depilatory ([…] cream, manufactured by Ildong Pharmaceutical Co., Ltd.) was applied to the dorsal skin to completely remove the hair.

[2] = tested on: C57BL/6 mice having alopecia caused by cyclophosphamide
Experimental: The day, on which the mice were hair-removed in Example 1, was set as day 0, and the animals were divided into the following groups: normal group (Control, 4 animals) in which only PBS is intraperitoneally injected on day 9; cyclophosphamide group (CYP, 6 animals) in which cyclophosphamide (150 mg/kg) is intraperitoneally injected on day 9; combination-treated group (CYP+Dunnione, 6 animals) in which dunnione is orally administered on a daily basis starting from 3 days prior to treatment with cyclophosphamide; and dunnione alone-treated group (Dunnione, 4 animals) in which only dunnione (20 mg/kg) is administered (FIG. 1).
The day, on which the mice were hair-removed in Example 1, was set as day 0, and the mice in each of the experimental groups described in Example 2 were sacrificed on day 18. Subsequently, the mouse dorsal skin was dissected parallel or perpendicular to the vertebral line, and removed. The removed skin was fixed with a Bouin's solution for 12 hours, subjected to dehydration, and embedded in paraffin. Then, the resulting product was prepared into 5-μm sections. The prepared sections were subjected to hematoxylin and eosin (H&E) staining, and histological changes in the skin in each experimental group were observed.

NQO1 knockout mice [3] = conditions: day 18
Experimental: The day, on which the NQO1 knockout mice were hair-removed according to Example 1, was set as day 0, and the animals were divided into the following experimental groups and used for experiments: normal group (Control, 4 animals) in which only PBS is intraperitoneally injected on day 9; cyclophosphamide group (CYP, 6 animals) in which cyclophosphamide (150 mg/kg) is intraperitoneally injected on day 9; combination-treated group (CYP+Dunnione, 6 animals) in which dunnione is orally administered on a daily basis starting from 3 days prior to treatment with cyclophosphamide; and dunnione alone-treated group (Dunnione, 4 animals) in which only dunnione (20 mg/kg) is administered (FIG. 1).
The day, on which the NQO1 knockout mice were hair-removed according to Example 1, was set as day 0, and the mice in each of the experimental groups described in Example 3 were sacrificed on day 18. Subsequently, the mouse dorsal skin was dissected parallel or perpendicular to the vertebral line, and removed. The removed skin was fixed with a Bouin's solution for 12 hours, subjected to dehydration, and embedded in paraffin. Then, the resulting product was prepared into 5-μm sections. The prepared sections were subjected to hematoxylin and eosin (H&E) staining, and histological changes in the skin in each experimental group were observed.

NAD^+ = assay: NAD+ and NADH concentrations and NAD+/NADH ratio in skin tissue, cyclophosphamide alopecia model; type: in vivo, mice; conditions: cyclophosphamide plus dunnione vs cyclophosphamide
Experimental: Specifically, in order to quantify the NAD^+ and NADH concentrations in the skin tissue obtained from the animal model prepared by the method in Example 2, the skin tissue was tested with the analysis kit (E2ND-100) of BioAssay Systems according to the instruction manual, and then the NAD^+/NADH ratio was analyzed. First, 10 mg of skin tissue was collected from the animal model. Then, 100 μl of extraction solution for NAD^+ or NADH was added to the skin tissue and homogenized. Then, the homogenized skin tissue was subjected to heat treatment at 60° C. for 5 minutes. Neutralization was performed by addition of the same volume of the extraction solution, and then centrifugation was performed at 14,000 rpm for 5 minutes to obtain the supernatant. Then, a developing reagent was added to the supernatant. The NAD^+ and NADH concentrations were determined from the absorbance measured at a wavelength of 565 nm, and the NAD^+/NADH ratio was analyzed.

NF-κB p65 = assay: Acetylation of NF-κB p65 in skin tissue (western blot), cyclophosphamide alopecia model; type: in vivo, mice; conditions: cyclophosphamide plus dunnione; day 18
Experimental: In the cyclophosphamide-induced alopecia mouse model of Example 2, expression level of Sirt1 protein and acetylation reaction of the target proteins thereof, NF-κB p65 and p53, were identified on the skin tissue obtained on day 18 after hair removal.
Specifically, 10 mg of the skin tissue obtained from the animal model prepared by the method in Example 2 was homogenized by addition of a lysis solution (RIPA lysis buffer). Then, centrifugation was performed at 14,000 rpm for 10 minutes. The protein concentration in the supernatant was quantified with a bovine serum albumin (BSA) standard solution. The skin tissue protein was used in an amount of 40 μg per test solution. First, the homogenized skin tissue was mixed with a sample solution (Bio-Rad, 161-0747) and inactivated at a temperature of 95° C. for 5 minutes. Thereafter, the protein was separated by a sodium dodecyl sulfate-polyacrylamide gel electrophoresis (SDS-PAGE) method, and then transferred to a nitrocellulose membrane. Treatment with anti-Sirt1 antibody (Abcam), anti-acetyl NF-κB p65 antibody and anti-acetyl p53 antibody (Cell Signaling Technologies), and anti-β-actin antibody (Santa Cruz Biotechnology) as primary antibodies were performed, and reaction was allowed to proceed. […]

[4] = tested on: C57BL/6 mice having alopecia caused by docetaxel, adriamycin, and cyclophosphamide; assay: Visual observation of skin in animal model having alopecia caused by 6×TAC; type: in vivo
From the text: In 9-week-old C57BL/6 mice, the hair on the dorsal skin area was first removed with an animal hair clipper, and then a depilatory (Niclean cream, manufactured by Ildong Pharmaceutical Co., Ltd.) was applied to the dorsal skin to completely remove the hair.
Docetaxel (DTX), adriamycin (ADR), and cyclophosphamide (CYP) were used as anticancer drugs, and combined administration of the three anticancer drugs was designated as TAC. In addition, information was obtained from the National Comprehensive Cancer Network (NCCN) for the single concentration (designated as 1× concentration) of each anticancer drug which is actually clinically applied to cancer patients. As described below, for the experimental group to be treated with anti-cancer drugs, the mice were treated with docetaxel, adriamycin, and cyclophosphamide at 6× concentration (11.58 mg/kg, 9.24 mg/kg, and 76.8 mg/kg, respectively). When treatment with the anticancer drugs is performed, the anticancer drugs were injected intraperitoneally at time intervals of 1 hour so that each of the anticancer drugs can be sufficiently absorbed.

NQO1 knockout mice [5] = assay: Visual observation of skin in NQO1 knockout mice treated with 6×TAC; type: in vivo
From the text: In order to identify whether a hair loss inhibitory effect of dunnione in an animal model having combined chemotherapy-induced alopecia is dependent on the enzyme NQO1, the same experiments as described in Examples 1 and 2 were repeatedly performed using NQO1 knockout mice in place of the C57BL/6 mice.

CC1OC2=C(C(=O)C(=O)c3ccccc32)C1(C)C (stereo not drawn) [dunnione, 2,3-dihydro-2,3,3-trimethyl-naphtho[1,2-b]furan-4,5-dione]
hair growth, visual observation of skin ([1]; CYP+Dunnione combination-treated group, day 18 after hair removal): hair grew overall so that the skin is full of hair and looks black
hair growth, visual observation of skin ([1]; CYP+Dunnione: cyclophosphamide 150 mg/kg i.p. day 9, dunnione oral daily from 3 days prior, day 14 after hair removal): began to grow more hair than the cyclophosphamide alone-treated group
hair loss ([1]; cyclophosphamide plus dunnione combination-treated group compared with cyclophosphamide alone-treated group): inhibited hair loss
hair growth, visual observation of skin ([1]; dunnione alone (20 mg/kg), day 18 after hair removal): hair grew overall so that the skin is full of hair and looks black
development of hair follicles and inner root sheaths (histology) ([2]; CYP+Dun combination-treated group, day 18 after hair removal): suppressed falling-off of hair follicles and inner root sheaths; also recorded: the hair follicles and the inner root sheaths have well developed overall
number of growing hairs (histology) ([2]; CYP+Dun compared with cyclophosphamide alone-treated group, day 18): increased number of hairs
development of hair follicles and inner root sheaths (histology) (NQO1 knockout mice [3]; CYP+Dun combination-treated group): the hair follicles have poorly developed or the inner root sheaths have insufficiently developed; also recorded: falling-off of hair follicles and inner root sheaths in the skin tissue progresses
development of hair follicles and inner root sheaths (histology) (NQO1 knockout mice [3]; dunnione alone): the hair follicles and inner root sheaths have well developed overall
NAD^+/NADH ratio in skin tissue (NAD^+; day 18): increases
NAD^+ concentration in skin tissue (NAD^+; day 18 after hair removal): increases
acetylation of NF-κB p65 in skin tissue (NF-κB p65): suppresses
hair growth, visual observation of skin ([4]; 6×TAC+Dunnione combination-treated group, day 18): hair grew overall so that the skin is full of hair and looks black
hair growth, visual observation of skin ([4]; 6×TAC+Dunnione: 6×TAC i.p. day 9, dunnione oral daily from 3 days prior, day 14): began to grow more hair than the 6×TAC alone-treated group
hair loss ([4]; TAC plus dunnione combination-treated group compared with TAC alone-treated group): inhibited hair loss
hair growth, visual observation of skin ([4]; dunnione alone, day 18): hair grew overall so that the skin is full of hair and looks black
hair growth, visual observation of skin (NQO1 knockout mice [5]; 6×TAC+Dunnione combination-treated group, until day 18): hair hardly grows until day 18 after hair removal; also recorded: progression of hair loss to a level similar to the TAC alone-treated group
start of hair growth, visual observation of skin (NQO1 knockout mice [5]; dunnione alone (20 mg/kg)): hair began to grow starting from day 12 after hair removal
hair growth, visual observation of skin (NQO1 knockout mice [5]; dunnione alone (20 mg/kg), day 18): hair grew overall on day 18 so that the skin is full of hair and looks black
